Results taken from patent US11638707B2, “Substituted amino triazoles useful as chitinase inhibitors” (Molecure S.A., priority 2019, dated 2023).
Structures can show the parent of a compound that is named as a salt.

Key:
recombinant human CHIT1 = recombinant human CHIT1 (Homo sapiens (Human), UniProt Q13231); test: Human CHIT1 activity assay; assay type: biochemical; settings: recombinant human CHIT1, citrate buffer pH 5.2, 37° C., 60 minutes; read-out: hCHIT1, IC50
Experimental: (§1) The assay was run in the 96-well plate format, each reaction in the total volume of 100 μL. 4-methylumbelliferyl β-D-N,N′,N″-triacetylchitotriose was used as a substrate for the enzyme. Upon hydrolysis by CHIT1, the substrate releases 4-methylumbelliferyl (4MU) that, when ionized in basic pH, emits fluorescence at 460 nm. Briefly, 40 μL of a substrate was added to each well, followed by 10 μL of compound dilution and 50 μL of CHIT1 recombinant enzyme solution. The reaction was carried out in citrate buffer, pH 5.2, in the dark, at 37° C. for 60 minutes with shaking. […] The IC50 values were calculated using GraphPad Prism.

hERG channel = hERG channel (Homo sapiens (Human), UniProt Q12809); test: Human ERG channel binding assay (fluorescence polarization); settings: Table 1; tracer displacement, 4 h at room temperature
Sequence of hERG channel (Q12809 whole entry): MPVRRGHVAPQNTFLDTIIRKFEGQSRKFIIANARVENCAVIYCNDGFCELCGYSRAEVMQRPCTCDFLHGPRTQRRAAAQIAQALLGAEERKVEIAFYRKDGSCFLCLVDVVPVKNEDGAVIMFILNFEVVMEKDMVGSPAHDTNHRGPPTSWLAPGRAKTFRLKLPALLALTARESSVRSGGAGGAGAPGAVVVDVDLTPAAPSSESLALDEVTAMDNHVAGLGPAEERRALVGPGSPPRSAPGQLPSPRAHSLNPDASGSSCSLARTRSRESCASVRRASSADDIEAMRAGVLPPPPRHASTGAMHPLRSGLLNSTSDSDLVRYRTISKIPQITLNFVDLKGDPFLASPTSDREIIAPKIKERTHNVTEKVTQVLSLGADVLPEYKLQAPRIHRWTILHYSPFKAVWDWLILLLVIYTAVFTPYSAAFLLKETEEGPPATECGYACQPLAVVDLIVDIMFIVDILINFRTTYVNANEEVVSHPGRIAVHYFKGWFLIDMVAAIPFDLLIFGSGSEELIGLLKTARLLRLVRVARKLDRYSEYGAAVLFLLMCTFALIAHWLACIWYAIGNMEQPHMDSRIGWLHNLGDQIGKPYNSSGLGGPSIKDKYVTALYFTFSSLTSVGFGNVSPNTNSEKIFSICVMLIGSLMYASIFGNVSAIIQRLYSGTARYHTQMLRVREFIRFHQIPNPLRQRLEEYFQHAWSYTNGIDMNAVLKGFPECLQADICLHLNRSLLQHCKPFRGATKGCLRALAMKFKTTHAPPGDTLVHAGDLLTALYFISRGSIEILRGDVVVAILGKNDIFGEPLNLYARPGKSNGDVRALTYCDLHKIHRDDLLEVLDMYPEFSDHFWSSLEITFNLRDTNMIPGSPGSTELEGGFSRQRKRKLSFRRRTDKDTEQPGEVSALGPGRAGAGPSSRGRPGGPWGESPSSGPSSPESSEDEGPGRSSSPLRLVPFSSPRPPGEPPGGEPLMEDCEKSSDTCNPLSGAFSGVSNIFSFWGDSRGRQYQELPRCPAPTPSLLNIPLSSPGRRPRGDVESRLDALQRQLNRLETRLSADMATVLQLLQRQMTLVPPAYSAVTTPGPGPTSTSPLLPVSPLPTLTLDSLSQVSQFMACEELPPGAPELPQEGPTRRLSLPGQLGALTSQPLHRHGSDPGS
Experimental: Human ERG Channel Binding Assay
Fluorescence polarization assay based on the principle of fluorescence polarization where a red-shifted fluorescent tracer is displaced from the hERG channel by compounds that bind to the channel was used to establish the binding of the compounds to hERG channel. […] Briefly, the compounds in serial dilutions were incubated with a membrane fraction containing hERG channel protein and a high-affinity red fluorescent hERG channel ligand in black 384-well plate. […] The IC50 values were calculated using GraphPad Prism.

recombinant human AMCase = recombinant human AMCase (Homo sapiens (Human), UniProt Q9BZP6); test: Human AMCase activity assay; assay type: biochemical; settings: citrate buffer pH 5.2, 37° C., 60 minutes, read-out: hAMCase, IC50
Sequence of recombinant human AMCase (Q9BZP6 22-476): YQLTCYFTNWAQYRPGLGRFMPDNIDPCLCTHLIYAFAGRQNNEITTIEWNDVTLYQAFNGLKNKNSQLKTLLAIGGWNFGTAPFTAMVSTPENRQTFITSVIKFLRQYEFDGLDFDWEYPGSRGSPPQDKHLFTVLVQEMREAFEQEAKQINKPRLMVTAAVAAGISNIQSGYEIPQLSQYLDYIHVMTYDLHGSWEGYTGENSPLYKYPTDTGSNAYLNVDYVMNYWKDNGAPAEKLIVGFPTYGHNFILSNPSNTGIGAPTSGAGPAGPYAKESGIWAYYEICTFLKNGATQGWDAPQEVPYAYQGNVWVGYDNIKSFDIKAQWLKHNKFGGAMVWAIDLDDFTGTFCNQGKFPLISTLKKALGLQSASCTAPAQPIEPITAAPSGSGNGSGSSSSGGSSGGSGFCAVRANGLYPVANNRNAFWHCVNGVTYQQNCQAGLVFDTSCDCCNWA
Experimental: as §1, with “4-Methylumbelliferyl B-D-N,N′-diacetylchitobioside hydrate” for “4-methylumbelliferyl β-D-N,N′,N″-triacetylchitotriose”, “AMCase,” for “CHIT1,”, “hAMCase” for “CHIT1”

Sequence of recombinant human CHIT1 (Q13231 22-466): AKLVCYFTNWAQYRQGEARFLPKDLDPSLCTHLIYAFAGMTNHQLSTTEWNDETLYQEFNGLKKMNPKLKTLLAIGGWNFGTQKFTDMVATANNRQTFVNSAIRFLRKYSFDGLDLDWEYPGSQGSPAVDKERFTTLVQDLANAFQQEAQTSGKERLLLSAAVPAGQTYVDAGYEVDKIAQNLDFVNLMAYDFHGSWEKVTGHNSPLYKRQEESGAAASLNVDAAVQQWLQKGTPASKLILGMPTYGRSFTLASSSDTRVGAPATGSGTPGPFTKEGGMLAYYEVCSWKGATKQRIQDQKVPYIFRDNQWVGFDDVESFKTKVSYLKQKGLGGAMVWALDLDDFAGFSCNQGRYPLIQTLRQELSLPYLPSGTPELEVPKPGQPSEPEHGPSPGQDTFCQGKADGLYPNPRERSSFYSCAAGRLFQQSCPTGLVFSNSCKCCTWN

## Nc1nnc(N2CCC(N3C[C@H](Cn4cccn4)OC[C@@H]3Cc3ccc(Cl)cc3)CC2)[nH]1 [Example 13, 5-(4-((2R,5S)-2-((1H-pyrazol-1-yl)methyl)-5-(4-chlorobenzyl)morpholino)-piperidin-1-yl)-4H-1,2,4-triazol-3-amine 2,2,2-trifluoroacetate]
Recombinant human CHIT1
  IC50: < 100 nM
hERG channel
  IC50: > 100000 nM
Recombinant human AMCase
  IC50: < 100 nM

## Nc1nnc(N2CCC(N3C[C@H](CC(F)(F)F)OC[C@@H]3Cc3ccc(Cl)cc3)CC2)[nH]1 [Example 14, 5-(4-((2S,5S)-5-(4-chlorobenzyl)-2-(2,2,2-trifluoroethyl)morpholino)piperidin-1-yl)-4H-1,2,4-triazol-3-amine 2,2,2-trifluoroacetate]
Recombinant human CHIT1
  IC50: < 100 nM
hERG channel
  IC50: > 100000 nM
Recombinant human AMCase
  IC50: < 100 nM

## Nc1nnc(N2CCC(N3C[C@H](CN4CCOCC4)OC[C@@H]3Cc3ccc(Cl)cc3)CC2)[nH]1 [Example 15, 5-(4-((2S,5S)-5-(4-chlorobenzyl)-2-(morpholinomethyl)morpholino)piperidin-1-yl)-4H-1,2,4-triazol-3-amine 2,2,2-trifluoroacetate]
Recombinant human CHIT1
  IC50: < 100 nM
hERG channel
  IC50: > 100000 nM
Recombinant human AMCase
  IC50: < 100 nM

## Nc1nnc(N2CCC(N3C[C@H]([C@H](O)C(F)(F)F)OC[C@@H]3Cc3ccc(Cl)cc3)CC2)[nH]1 [Example 16, (S)-1-((2R,5S)-4-(1-(5-amino-4H-1,2,4-triazol-3-yl)piperidin-4-yl)-5-(4-chloro-benzyl)morpholin-2-yl)-2,2,2-trifluoroethanol 2,2,2-trifluoroacetate]
Recombinant human CHIT1
  IC50: < 100 nM
hERG channel
  IC50: > 100000 nM
Recombinant human AMCase
  IC50: < 100 nM

## Nc1nnc(N2CCC(N3C[C@H]([C@@H](O)C(F)(F)F)OC[C@@H]3Cc3ccc(Cl)cc3)CC2)[nH]1 [Example 17, (R)-1-((2R,5S)-4-(1-(5-amino-4H-1,2,4-triazol-3-yl)piperidin-4-yl)-5-(4-chlorobenzyl)morpholin-2-yl)-2,2,2-trifluoroethanol 2,2,2-trifluoroacetate]
Recombinant human CHIT1
  IC50: < 100 nM
hERG channel
  IC50: 25000 to 100000 nM
Recombinant human AMCase
  IC50: < 100 nM

## Nc1nnc(N2CCC(N3C[C@H](Cn4ccnn4)OC[C@@H]3Cc3ccc(Cl)cc3)CC2)[nH]1 [Example 21, 5-(4-((2R,5S)-2-((1H-1,2,3-triazol-1-yl)methyl)-5-(4-chlorobenzyl)morpholino)-piperidin-1-yl)-4H-1,2,4-triazol-3-amine 2,2,2-trifluoroacetate]
Recombinant human CHIT1
  IC50: < 100 nM
hERG channel
  IC50: 25000 to 100000 nM
Recombinant human AMCase
  IC50: < 100 nM

## Cc1cc([C@H]2CN(C3CCN(c4nnc(N)[nH]4)CC3)[C@@H](Cc3ccc(Cl)cc3)CO2)on1 [Example 22, 5-(4-((2R,5S)-5-(4-chlorobenzyl)-2-(3-methylisoxazol-5-yl)morpholino)piperidin-1-yl)-4H-1,2,4-triazol-3-amine 2,2,2-trifluoroacetate]
Recombinant human CHIT1
  IC50: < 100 nM
hERG channel
  IC50: > 100000 nM
Recombinant human AMCase
  IC50: < 100 nM

## CC1(C)CC1NC(=O)[C@H]1CN(C2CCN(c3nnc(N)[nH]3)CC2)[C@@H](Cc2ccc(Cl)cc2)CO1 (stereo partly drawn) [Example 23, (2R,5S)-4-(1-(5-amino-4H-1,2,4-triazol-3-yl)piperidin-4-yl)-5-(4-chlorobenzyl)-N-(2,2-dimethylcyclopropyl)morpholine-2-carboxamide 2,2,2-trifluoroacetate]
Recombinant human CHIT1
  IC50: < 100 nM
hERG channel
  IC50: > 100000 nM
Recombinant human AMCase
  IC50: < 100 nM

## Nc1nnc(N2CCC(N3C[C@H](C(=O)NC4CC4)OC[C@@H]3Cc3ccc(Cl)cc3)CC2)[nH]1 [Example 24, (2R,5S)-4-(1-(5-amino-4H-1,2,4-triazol-3-yl)piperidin-4-yl)-5-(4-chlorobenzyl)-N-cyclopropylmorpholine-2-carboxamide 2,2,2-trifluoroacetate]
Recombinant human CHIT1
  IC50: < 100 nM
hERG channel
  IC50: > 100000 nM
Recombinant human AMCase
  IC50: < 100 nM

## Nc1nnc(N2CCC(N3C[C@H](C(=O)NCC(F)F)OC[C@@H]3Cc3ccc(Cl)cc3)CC2)[nH]1 [Example 25, (2R,5S)-4-(1-(5-amino-4H-1,2,4-triazol-3-yl)piperidin-4-yl)-5-(4-chlorobenzyl)-N-(2,2-difluoroethyl)morpholine-2-carboxamide 2,2,2-trifluoroacetate]
Recombinant human CHIT1
  IC50: < 100 nM
hERG channel
  IC50: > 100000 nM
Recombinant human AMCase
  IC50: < 100 nM

## Nc1nnc(N2CCC(N3C[C@H](C(=O)NCC(F)(F)F)OC[C@@H]3Cc3ccc(Cl)cc3)CC2)[nH]1 [Example 26, (2R,5S)-4-(1-(5-amino-4H-1,2,4-triazol-3-yl)piperidin-4-yl)-5-(4-chlorobenzyl)-N-(2,2,2-trifluoroethyl)morpholine-2-carboxamide 2,2,2-trifluoroacetate]
Recombinant human CHIT1
  IC50: 100 to 1000 nM
hERG channel
  IC50: > 100000 nM
Recombinant human AMCase
  IC50: < 100 nM

## Nc1nnc(N2CCC(N3C[C@H](Cn4cncn4)OC[C@@H]3Cc3ccc(Cl)cc3)CC2)[nH]1 [Example 27, 5-(4-((2R,5S)-2-((1H-1,2,4-triazol-1-yl)methyl)-5-(4-chlorobenzyl)morpholino)piperidin-1-yl)-4H-1,2,4-triazol-3-amine 2,2,2-trifluoroacetate]
Recombinant human CHIT1
  IC50: < 100 nM
hERG channel
  IC50: > 100000 nM
Recombinant human AMCase
  IC50: < 100 nM

## Nc1nnc(N2CCC(N3C[C@H](CN4CCCC4)OC[C@@H]3Cc3ccc(Cl)cc3)CC2)[nH]1 [Example 28, 5-(4-((2S,5S)-5-(4-chlorobenzyl)-2-(pyrrolidin-1-ylmethyl)morpholino)piperidin-1-yl)-4H-1,2,4-triazol-3-amine 2,2,2-trifluoroacetate]
Recombinant human CHIT1
  IC50: < 100 nM
hERG channel
  IC50: > 100000 nM
Recombinant human AMCase
  IC50: < 100 nM

## Nc1nnc(N2CCC(N3C[C@H](CN4CCC(F)(F)C4)OC[C@@H]3Cc3ccc(Cl)cc3)CC2)[nH]1 [Example 29, 5-(4-((2S,5S)-5-(4-chlorobenzyl)-2-((3,3-difluoropyrrolidin-1-yl)methyl)-morpholino)piperidin-1-yl)-4H-1,2,4-triazol-3-amine 2,2,2-trifluoroacetate]
Recombinant human CHIT1
  IC50: < 100 nM
hERG channel
  IC50: > 100000 nM
Recombinant human AMCase
  IC50: < 100 nM

## Nc1nnc(N2CCC(N3C[C@H](CN4CC[C@H](O)C4)OC[C@@H]3Cc3ccc(Cl)cc3)CC2)[nH]1 [Example 30, (S)-1-(((2S,5S)-4-(1-(5-amino-4H-1,2,4-triazol-3-yl)piperidin-4-yl)-5-(4-chlorobenzyl)morpholin-2-yl)methyl)pyrrolidin-3-ol 2,2,2-trifluoroacetate]
Recombinant human CHIT1
  IC50: 100 to 1000 nM
hERG channel
  IC50: > 100000 nM
Recombinant human AMCase
  IC50: < 100 nM

## Nc1nnc(N2CCC(N3C[C@H](CN4CC[C@@H](O)C4)OC[C@@H]3Cc3ccc(Cl)cc3)CC2)[nH]1 [Example 31, (R)-1-(((2S,5S)-4-(1-(5-amino-4H-1,2,4-triazol-3-yl)piperidin-4-yl)-5-(4-chlorobenzyl)morpholin-2-yl)methyl)pyrrolidin-3-ol 2,2,2-trifluoroacetate]
Recombinant human CHIT1
  IC50: 100 to 1000 nM
hERG channel
  IC50: > 100000 nM
Recombinant human AMCase
  IC50: < 100 nM

## C[S+]([O-])C[C@H]1CN(C2CCN(c3nnc(N)[nH]3)CC2)[C@@H](Cc2ccc(Cl)cc2)CO1 (stereo partly drawn) [Example 32, 5-(4-((2R,5S)-5-(4-chlorobenzyl)-2-((methylsulfinyl)methyl)morpholino)piperidin-1-yl)-4H-1,2,4-triazol-3-amine dihydrochloride]
Recombinant human CHIT1
  IC50: < 100 nM
hERG channel
  IC50: > 100000 nM
Recombinant human AMCase
  IC50: < 100 nM

## CS(=O)(=O)C[C@H]1CN(C2CCN(c3nnc(N)[nH]3)CC2)[C@@H](Cc2ccc(Cl)cc2)CO1 [Example 33, 5-(4-((2R,5S)-5-(4-chlorobenzyl)-2-((methylsulfonyl)methyl)morpholino)piperidin-1-yl)-4H-1,2,4-triazol-3-amine dihydrochloride]
Recombinant human CHIT1
  IC50: < 100 nM
hERG channel
  IC50: > 100000 nM
Recombinant human AMCase
  IC50: < 100 nM

## Cc1cc([C@H]2CN(C3CCN(c4nnc(N)[nH]4)CC3)[C@@H](Cc3ccc(Cl)cc3)CO2)[nH]n1 [Example 34, 5-(4-((2R,5S)-5-(4-chlorobenzyl)-2-(3-methyl-1H-pyrazol-5-yl)morpholino)-piperidin-1-yl)-4H-1,2,4-triazol-3-amine 2,2,2-trifluoroacetate]
Recombinant human CHIT1
  IC50: < 100 nM
hERG channel
  IC50: 25000 to 100000 nM
Recombinant human AMCase
  IC50: < 100 nM

## Nc1nnc(N2CCC(N3C[C@H](Cn4cc(F)cn4)OC[C@@H]3Cc3ccc(Cl)cc3)CC2)[nH]1 [Example 36, 5-(4-((2R,5S)-5-(4-chlorobenzyl)-2-((4-fluoro-1H-pyrazol-1-yl)methyl)-morpholino)piperidin-1-yl)-4H-1,2,4-triazol-3-amine 2,2,2-trifluoroacetate]
Recombinant human CHIT1
  IC50: < 100 nM
hERG channel
  IC50: 10000 to 25000 nM
Recombinant human AMCase
  IC50: < 100 nM

## Nc1nnc(N2CCC(N3C[C@H](CN4CC(F)C4)OC[C@@H]3Cc3ccc(Cl)cc3)CC2)[nH]1 [Example 37, 5-(4-((2S,5S)-5-(4-chlorobenzyl)-2-((3-fluoroazetidin-1-yl)methyl)morpholino)-piperidin-1-yl)-4H-1,2,4-triazol-3-amine 2,2,2-trifluoroacetate]
Recombinant human CHIT1
  IC50: < 100 nM
hERG channel
  IC50: 25000 to 100000 nM
Recombinant human AMCase
  IC50: < 100 nM
